Measurements taken from patent publication US4958010A, “Epipodophyllotoxin glucoside lactam derivatives” (Bristol-Myers Company, priority 1989, dated 1990).
“And” between values parts separate entries of the source, which are not always exact repeats. Equal entries are not always repeated.

Assays:
[1] = test system: P388 leukemia; assay: antitumor activity against intravenously implanted P388 leukemia in BDF1 female mice; assay type: in vivo, murine (BDF1 female mice); settings: 10^6 P388 cells i.v., etoposide i.p., 125 mg/kg/dose, 64 days
Experimental: Compound of Example 15 was evaluated against intravenously implanted P388 leukemia (10^6 cells) in BDF1 female mice. The test compound was administered intravenously at various dose levels to groups of six mice on days 5 and 8; the positive control, etoposide, was given intraperitoneally. The experiment lasted 64 days.

[2] = test system: HCT/VP35; assay: in vitro cytotoxicity assay, HCT/VP35 human colon tumor resistant to etoposide; assay type: cell-based; settings: etoposide-resistant line, concentration required to inhibit cell growth by 50%, four-fold serial dilution, replicate determinations on separate lines
Experimental: (§1) Representative compounds of the present invention were also evaluated in in vitro cytotoxicity assay against various murine and human tumor cell lines. The in vitro cytotoxicity assay involved growing various mammalian tumor cells, including human tumor cells, on microtitre plates employing established tissue culture methods. The concentration of each compound required to inhibit cell growth by 50% (IC50) was then determined by four-fold serial dilution technique. Tumor cells of the following types were employed for each compound tested: B16-F10 murine melanoma; Moser human colon; SW900 human lung; and two human colon tumor cell lines namely HCT-116, and HCT/VP35, the latter being resistant to etoposide (VP). […] The in vitro data may also be evaluated in terms of potency ratio which is defined as the ratio of IC50 against an etoposide-resistant cell-line to IC50 against an etoposide-sensitive cell-line.

[3] = test system: HCT-116; assay: in vitro cytotoxicity assay, HCT-116 human colon tumor; assay type: cell-based; settings: concentration required to inhibit cell growth by 50%, four-fold serial dilution, replicate determinations on separate lines
Experimental: as §1

[4] = test system: SW900 human lung; assay: in vitro cytotoxicity assay, SW900 human lung; assay type: cell-based; settings: concentration required to inhibit cell growth by 50%, four-fold serial dilution, replicate determinations on separate lines
Experimental: as §1

[5] = test system: Moser human colon; assay: in vitro cytotoxicity assay, Moser human colon; assay type: cell-based; settings: concentration required to inhibit cell growth by 50%, four-fold serial dilution, replicate determinations on separate lines
Experimental: as §1

[6] = cited from earlier work
[7] = test system: B16-F10 murine melanoma; assay: in vitro cytotoxicity assay, B16-F10 murine melanoma; assay type: cell-based; settings: concentration required to inhibit cell growth by 50%, four-fold serial dilution, replicate determinations on separate lines
Experimental: as §1

SMILES: COc1cc([C@@H]2c3cc4c(cc3[C@@H](O[C@@H]3O[C@@H]5CO[C@@H](C)O[C@H]5[C@H](O)[C@H]3O)[C@H]3COC(=O)[C@H]23)OCO4)cc(OC)c1O [etoposide, reference compound]
- max. % T/C (positive control) [1]: > 753 % T/C
- IC50 HCT/VP35 [2]: 122.79 µg/mL and 184.01 µg/mL and 98.33 µg/mL and 142.90 µg/mL and 79.06 µg/mL and 48.22 µg/mL
- IC50 HCT/VP35 ([2]; listed as Etoposide): 16.31 µg/mL and 18.74 µg/mL and 140.63 µg/mL
- IC50 HCT-116 [3]: 14.78 µg/mL and 20.54 µg/mL and 38.03 µg/mL and 41.01 µg/mL and 3.86 µg/mL and 6.57 µg/mL
- IC50 HCT-116 ([3]; listed as Etoposide): 15.21 µg/mL and 30.12 µg/mL and 51.27 µg/mL
- IC50 SW900 [4]: 201.94 µg/mL and 241.29 µg/mL and 243.49 µg/mL and > 500 µg/mL and 77.80 µg/mL and 54.59 µg/mL
- IC50 SW900 ([4]; listed as Etoposide): 213.23 µg/mL and 241.88 µg/mL
- IC50 Moser [5]: 121.73 µg/mL and 163.19 µg/mL and 208.30 µg/mL and 209.76 µg/mL and 65.72 µg/mL and 54.09 µg/mL
- IC50 Moser ([5]; listed as Etoposide): 94.51 µg/mL and 97.83 µg/mL and 116.41 µg/mL
- in vivo metabolism [6]: extensively metabolized to the open ring hydroxy acid
- IC50 B16-F10 [7]: 16.75 µg/mL and 19.47 µg/mL and 27.72 µg/mL and 30.38 µg/mL and 9.96 µg/mL and 5.80 µg/mL
- IC50 B16-F10 ([7]; listed as Etoposide): 19.36 µg/mL and 51.93 µg/mL and 62.19 µg/mL
